Experiments:
[1] = test system: primary rat neurons, astrocytes, and cerebral endothelial cells; conditions: cited from earlier work
caspase-3 = assay: STS-induced caspase-3 (3/7) activity in neurons; format: cell-based, rat
Method: The Caspase3/7-GLO assay uses the exact same reagents as the CellTiter-GLO assay accept for the addition of a luciferin substrate crosslinked to an amino acid caspase cleavage target. Activation of caspases frees luciferin. Luciferin can then be oxidized by luciferase, thereby initiating a light reaction. Luminescence was measured using a luminometer.

4-HNE = assay: Lipid peroxidation (4-HNE western blot) in neurons; format: cell-based, rat
Method: To test if AQ2S promotes lipid peroxidation in neurons, at D.I.V. 12, culture media was exchanged with Neurobasal/B27 (−AO) in the absence or presence of […] for 48 hours. D.I.V. 14 neurons were harvested and analyzed for 4-HNE levels.
Injury (e.g. brain ischemia), robustly increases endogenous reactive oxygen species (ROS) levels. ROS may promote the formation of deleterious quinone radicals and increase lipid peroxidation. The potential enhancement by AQ2S of lipid peroxidation induced by 200 μM H2O2 was evaluated. D.I.V. 13 neurons were treated for 4.5 hours with 200 μM H2O2 in fresh neurobasal/B27 (−AO) in the presence or absence of 125 μM AQ2S. 200 μM H2O2 increased 4-HNE levels. The asterisk in FIG. 17b indicates an approximate 40-45 KDa band, particularly, sensitive to treatment.
Neurons used for Western blot analysis for grown in 6-well plates. Briefly, neurons were treated with experimental compounds for the indicated time/conditions. At the end of each experiment, neurons were washed in ice cold PBS and harvested in 65 μL RIPA buffer containing protease inhibitors, phosphatase inhibitors, and EDTA. Extracts were collected in 0.5 mL tubes and sonicated for 20-30 seconds. Cell extracts were then spun at 4° C./16,000 g/10 minutes and stored at −80° C. until use. Frozen extracts were thawed on ice and protein concentration measured using the BCA assay (PIERCE). […]

[2] = test system: Human derived myocardial heart cells; assay: STS injury in human heart cells, viability (CellTiter Blue); format: cell-based; conditions: 24 hour co-treatment; 500 nM or 1 μM STS, 125 μM AQ2S
Method: Human derived myocardial heart cells were seeded onto 96-well plates. 24 hours later cells were injured with STS.
Optimal cell death conditions were established in heart cells. Heart cells were treated with STS at increasing doses for 24 hours (FIG. 28A). […] Heart cells were treated with 500 nM STS+/−125 μM AQ2S or 1 μM STS+/−125 μM AQ2S for 24 hours. Cell viability was measured 24 hours later and expressed as relative fluorescent units (RFU). […] Data were analyzed by ANOVA (p<0.0001); Fisher LSD post-hoc test. * indicates p<0.05. Graphs show Mean+SEM.

caspase-8 = assay: STS-induced caspase-8 activity in neurons; format: cell-based, rat; conditions: 150 nM STS 24 hours; co-treatment 75 μM
[3] = test system: primary rat cortical neurons; assay: STS injury, neuronal viability and cytotoxicity
Method: At D.I.V. 11, ½ media was collected (conditioned media) and mixed with an equal volume fresh neurobasal media (to make the 24 hour treatment media). STS was prepared at the desired concentration in treatment media, with or without experimental drugs (AQ2S or LY294002). The remaining growth maintenance media was replaced with 100 μL, of treatment media per well of a 96-well plate (or 2 mL for a six-well plate) for 24 hours.
The LDH Cytotoxicity Assay Kit II was purchased from Abcam (Cambridge, Mass., USA). Neurons were cultured in 96-well format and subjected to STS injury ±AQ2S for 24 hours (in 100 μL, total media volume). At 23 hours maximum LDH release (positive control) was prepared by adding 10 μL, cell lysis reagent directly to a few non-injured wells (i.e., no STS or AQ2S). At the end of the 24 hour injury period, 80 μL, of media was transferred to a new 96-well plate. Plates were spun at ˜500 g for 5 minutes. 10 μL, of cell culture treatment media was added to a new black-walled plate and advanced WST detection reagent added. The mix was incubated for ˜15 minutes and absorbance measured (OD 450 nm). Fresh culture media was used as a negative control. Cytotoxicity was calculated using the standard formula: cytotoxicity %=(sample LDH−negative-control LDH)/(maximum LDH release−negative-control LDH)×100.

[4] = test system: primary rat cortical neurons; assay: AQ2S alone on fluorescent and luminescent viability assays (luciferase interference); format: cell-based
Method: To test if AQ2S mediated inhibition of caspase3/7 was artifact, the effect of different AQ2S concentrations on 2 different cell viability tests were compared (one test fluorometric and the other luminescent). AQ2S was incubated at the indicated concentrations for 24 hours. After 24 hours, the cell viability reagent was added and cell survival assayed. […] Finally, to replicate the exact experimental conditions used in injury studies, neurons were first incubated with the CellTiter Blue reagent for 2 hours. Subsequently, the viability-GLO reagent was added for 1 hour and luminescence measured (i.e. viability reagents were mixed together; FIG. 11C).

mice = conditions: IP 100, 200 or 400 mg/kg; cited from earlier work
[5] = molecular target: T1, recombinant active caspase-3 (Homo sapiens, UniProt P42574); assay: In vitro cell-free caspase-3 drug screening assay (DEVD-AFC); format: biochemical
T1 construct: The reaction mixture was combined with recombinant active caspase-3 and a DEVD-AFC probe; purchased PromoKine (Heidelberg, Germany)
T1 sequence (P42574 29-175 limits assumed): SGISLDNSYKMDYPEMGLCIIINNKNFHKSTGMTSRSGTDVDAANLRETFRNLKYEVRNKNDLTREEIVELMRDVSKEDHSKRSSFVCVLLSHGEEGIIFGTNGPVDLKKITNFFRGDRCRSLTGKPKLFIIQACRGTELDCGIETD
T1 sequence (P42574 176-277 limits assumed): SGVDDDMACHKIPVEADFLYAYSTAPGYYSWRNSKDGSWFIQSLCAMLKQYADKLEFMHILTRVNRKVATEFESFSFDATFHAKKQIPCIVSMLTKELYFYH
Method: An in vitro caspase drug screening kit was purchased from PromoKine (Heidelberg, Germany), and used according to the manufacturer's instructions. Briefly, all drugs were dissolved in DMSO and diluted in double-distilled water to desired concentration. The reaction mixture was combined with recombinant active caspase-3 and a DEVD-AFC probe. Active caspase-3 cleaves the DEVD-recognition sequence and releases fluorescent AFC. The amount of AFC detected is a measure of caspase-3 activity. Reactions were prepared in black-walled 96-well plates, incubated at 37° C., and AFC release measured with an AFC filter (Ex: 405 nm, Em: 495-505 nM) on a GLOMax-Multi Microplate Reader (Promega).

rats = conditions: intraperitoneal; cited from earlier work
[6] = 150 nM STS 24 hours, co-treatment 75 μM

O=C1c2ccccc2C(=O)c2cc(S(=O)(=O)O)ccc21 [AQ2S, anthraquinone-2-sulfonic acid]
superoxide anion (O2^−) levels ([1]; 980 μM, over 60 minute): significantly upregulated superoxide anion (O2^−) levels
toxicity ([1]; 980 μM): lack of toxicity
cell viability ([1]; 5000 μM): 50%
caspase-3 activity (caspase-3; [6]): significantly reduced baseline and injury activity levels
STS-induced caspase-3 activation (caspase-3; 250 nM STS 24 hours): completely blocked STS-induced caspase-3 activation
potency among caspase-3, -8 and -9 (caspase-3; 75 μM): greatest potency against caspase-3
4-HNE staining (4-HNE; 200 μM H2O2 4.5 hours, 125 μM): did not significantly up-regulate 4-HNE staining
basal level of 4-HNE (4-HNE; uninjured, 125 AQ2S 48 hours): did not significantly increase the basal level of 4-HNE
heart cell viability after STS [2]: increased viability
caspase-8 activity (caspase-8): significantly reduced baseline and injury activity levels
STS injury, LDH release [3, 6]: significantly reduced 24 hour STS injury
STS injury, cellular ATP levels (GLO-Viability Assay) [3, 6]: significantly reduced 24 hour STS injury
STS injury, live-cell protease activity (CellTiter-Fluor) [3, 6]: significantly reduced 24 hour STS injury
STS injury, resazurin metabolism (CellTiter Blue) [3, 6]: significantly reduced 24 hour STS injury
reduction in viability compared with non-injured controls ([3]; 250 nM STS 24 hours, AQ2S-treated neurons): 17.6%
cell death after STS ([3]; 250 nM STS 24 hours, co-treatment 75 or 125 μM): significantly reduced cell death
cell viability, comparison of neuroprotectants ([3]; 250 nM STS co-administered 24 hours): increased cell viability
neuronal viability, high dose STS ([3]; 500 nM STS 24 hours, co-treatment 125 μM and 150 μM): significantly (but only slightly) increased neuronal viability
baseline viability or cytotoxicity ([3]; compound alone, no STS, 75 μM, 24 h): did not significantly alter baseline viability or cytotoxicity
concentration of maximal protection ([3]; neuroprotection in neuron injury assays): 75 to 125 µM
decrease in luminescent signal compared to DMSO controls ([4]; CellTiter Blue and viability-GLO reagents combined): 13-17%
viability, fluorometric CellTiter Blue assay ([4]; compound alone 24 hours, all concentrations used): none of the AQ2S concentrations used inhibited viability below control levels
survival (mice): all animals survived to toxicology day 5
tumor formation (mice): did not inhibit tumor formation
activity of recombinant caspase-3 [5]: significantly reduced the activity of recombinant caspase-3
Acute LD50 (rats): 730 mg/kg

— patent US10857112B2, “Small molecule inhibitors of RNA binding motif (RBM) proteins for the treatment of acute cellular injury” (University of Pittsburgh—Of the Commonwealth System of …, priority 2012, dated 2020)
